Results from PMC2841792 (Journal of medicinal chemistry, 2010).
pIC50: −log10 of the molar value. “Also recorded” adds a separate entry of the source. Counter-ions that a name gives are not always drawn. Like-named read-outs stand apart in the source and are kept apart here.

What was measured:
BoNT/A LC [1] = target: T1, BoNT/A LC (Clostridium botulinum, UniProt P0DPI0); experiment: biochemical; type: biochemical
[2] = target: anthrax lethal factor (LF) (Bacillus anthracis, UniProt P15917); experiment: biochemical
neuron = conditions: not told; cited from earlier work
BoNT/A LC [3] = target: T1, BoNT/A LC; experiment: biochemical
human MMP-1 = target: T2, human MMP-1 (Homo sapiens, UniProt P03956); type: biochemical
T2 sequence (P03956 100-469): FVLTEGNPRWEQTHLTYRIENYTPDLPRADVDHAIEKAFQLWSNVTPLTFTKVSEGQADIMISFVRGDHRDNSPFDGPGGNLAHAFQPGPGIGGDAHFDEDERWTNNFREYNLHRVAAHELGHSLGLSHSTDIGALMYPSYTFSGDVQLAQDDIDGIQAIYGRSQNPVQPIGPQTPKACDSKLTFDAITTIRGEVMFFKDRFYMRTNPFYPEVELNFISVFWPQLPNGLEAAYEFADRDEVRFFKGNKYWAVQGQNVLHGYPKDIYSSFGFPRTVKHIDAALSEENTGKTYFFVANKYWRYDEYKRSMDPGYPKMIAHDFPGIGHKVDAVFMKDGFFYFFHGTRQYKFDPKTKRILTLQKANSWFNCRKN

BoNT/B LC = BoNT/B LC (Clostridium botulinum, UniProt P10844); type: biochemical
MMP-9 = MMP-9 (Homo sapiens, UniProt P14780); type: biochemical
chick neuronal assay = type: cell-based

T1 sequence (P0DPI0 2-448 limits assumed): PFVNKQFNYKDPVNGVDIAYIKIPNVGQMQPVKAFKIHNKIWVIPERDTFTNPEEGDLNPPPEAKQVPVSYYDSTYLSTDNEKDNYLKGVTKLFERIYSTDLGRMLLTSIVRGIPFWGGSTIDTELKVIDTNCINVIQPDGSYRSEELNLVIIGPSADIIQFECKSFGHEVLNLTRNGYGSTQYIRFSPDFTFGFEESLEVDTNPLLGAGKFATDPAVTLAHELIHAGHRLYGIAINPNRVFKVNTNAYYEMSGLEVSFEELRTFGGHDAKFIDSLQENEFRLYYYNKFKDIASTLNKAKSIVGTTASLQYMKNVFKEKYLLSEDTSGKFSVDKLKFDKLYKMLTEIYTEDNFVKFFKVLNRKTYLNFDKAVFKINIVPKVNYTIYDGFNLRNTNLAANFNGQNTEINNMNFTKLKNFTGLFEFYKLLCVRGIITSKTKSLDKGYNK
Chain of anthrax lethal factor (LF) (P15917 34-809 limits assumed): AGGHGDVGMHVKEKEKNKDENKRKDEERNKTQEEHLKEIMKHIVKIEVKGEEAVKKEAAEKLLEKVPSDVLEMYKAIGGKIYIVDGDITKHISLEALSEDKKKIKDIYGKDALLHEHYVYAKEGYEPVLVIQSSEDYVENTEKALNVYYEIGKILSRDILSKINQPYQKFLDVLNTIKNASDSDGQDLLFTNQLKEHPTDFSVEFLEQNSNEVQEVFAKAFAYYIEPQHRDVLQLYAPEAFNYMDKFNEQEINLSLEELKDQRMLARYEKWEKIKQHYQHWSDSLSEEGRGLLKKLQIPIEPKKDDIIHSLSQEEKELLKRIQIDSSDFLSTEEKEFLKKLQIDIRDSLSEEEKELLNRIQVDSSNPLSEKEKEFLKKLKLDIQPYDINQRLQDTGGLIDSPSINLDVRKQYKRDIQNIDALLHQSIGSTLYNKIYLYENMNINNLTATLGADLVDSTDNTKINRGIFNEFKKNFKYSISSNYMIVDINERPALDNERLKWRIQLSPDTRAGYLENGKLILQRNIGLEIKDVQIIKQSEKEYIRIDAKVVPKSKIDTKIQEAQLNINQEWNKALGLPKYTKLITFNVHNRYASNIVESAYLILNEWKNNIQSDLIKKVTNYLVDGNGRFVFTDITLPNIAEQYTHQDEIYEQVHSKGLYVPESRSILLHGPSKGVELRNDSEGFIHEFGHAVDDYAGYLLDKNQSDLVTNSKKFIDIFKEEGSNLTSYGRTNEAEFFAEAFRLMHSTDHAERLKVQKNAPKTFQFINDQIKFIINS
Chain of MMP-9 (P14780 94-707): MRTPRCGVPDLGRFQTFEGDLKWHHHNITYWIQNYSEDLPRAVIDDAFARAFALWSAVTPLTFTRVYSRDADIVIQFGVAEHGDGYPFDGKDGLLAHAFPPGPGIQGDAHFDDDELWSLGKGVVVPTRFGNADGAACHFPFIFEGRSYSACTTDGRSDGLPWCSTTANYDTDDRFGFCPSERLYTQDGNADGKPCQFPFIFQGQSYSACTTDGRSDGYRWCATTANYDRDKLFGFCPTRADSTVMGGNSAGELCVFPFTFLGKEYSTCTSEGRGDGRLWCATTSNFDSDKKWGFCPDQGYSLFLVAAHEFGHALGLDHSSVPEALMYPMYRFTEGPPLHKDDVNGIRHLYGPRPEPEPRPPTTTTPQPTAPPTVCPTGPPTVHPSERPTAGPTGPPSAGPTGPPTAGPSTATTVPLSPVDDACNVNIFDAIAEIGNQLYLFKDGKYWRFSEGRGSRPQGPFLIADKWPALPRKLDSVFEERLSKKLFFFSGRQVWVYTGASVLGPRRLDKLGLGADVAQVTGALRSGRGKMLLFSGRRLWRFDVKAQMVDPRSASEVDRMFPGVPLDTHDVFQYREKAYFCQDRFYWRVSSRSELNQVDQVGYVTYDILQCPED
Chain of BoNT/B LC (P10844 2-441 limits assumed): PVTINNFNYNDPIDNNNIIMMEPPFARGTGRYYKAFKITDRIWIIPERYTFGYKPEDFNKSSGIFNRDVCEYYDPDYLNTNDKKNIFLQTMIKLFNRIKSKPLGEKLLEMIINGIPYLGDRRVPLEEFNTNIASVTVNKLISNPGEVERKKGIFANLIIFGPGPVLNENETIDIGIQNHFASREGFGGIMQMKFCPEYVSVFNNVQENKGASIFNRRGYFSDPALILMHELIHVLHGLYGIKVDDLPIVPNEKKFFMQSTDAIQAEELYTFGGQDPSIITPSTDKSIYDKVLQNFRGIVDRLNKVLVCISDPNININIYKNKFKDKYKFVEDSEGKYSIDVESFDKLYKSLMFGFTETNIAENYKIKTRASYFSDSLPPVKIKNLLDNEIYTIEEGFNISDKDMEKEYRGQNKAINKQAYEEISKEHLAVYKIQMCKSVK

SMILES | pIC50 (BoNT/A LC [1]) | pIC50 [2] | also measured
NC(=O)c1ccc2cc(-c3ccc(F)cc3)[nH]c2c1 [Compound 40a, 2-(4-Fluorophenyl)-1H-indole-6-carboxamide] | < 4.00 | < 4.00 | 
N#Cc1ccc(Oc2ccc(-c3cc4ccc(C5=NCCN5)cc4[nH]3)cc2)c(Cl)c1 [Compound 24c, 2-(4-(2-Chloro-4-cyanophenoxy)phenyl)-6-(4,5-dihydro-1H-imidazol-2-yl)indole] |  |  | fold less potent than bis-imidazoline 13 against BoNT/A LC (BoNT/A LC [1]): 2.4 fold; inhibitory activity against BoNT/A LC (in words) (BoNT/A LC [1]): maintain inhibitory activity
COc1ccc(-c2cc3ccc(C(=N)N)cc3[nH]2)cc1 [Compound 43b, 2-(4-Methoxyphenyl)-1H-indole-6-carboximidamide] | < 4.00 | < 4.00 | 
Cl.Cl.N=C(N)c1ccc(Oc2ccc(-c3cc4ccc(C(=N)N)cc4[nH]3)cc2)cc1 [Compound 5] |  |  | neuron permeability (neuron): neuron-permeable
c1cc(-c2cc3ccc(C4=NCCN4)cc3s2)ccc1C1=NCCN1 [Compound 46a, 2-(4-(6-(4,5-Dihydro-1H-imidazol-2-yl)benzo[b]thiophen-2-yl)phenyl)-4,5-dihydro-1H-imidazole] |  |  | pIC50 (BoNT/A LC [3]): 4.55
OC1CN=C(c2ccc(Oc3ccc(-c4cc5ccc(C6=NCC(O)CN6)cc5[nH]4)cc3)cc2)NC1 (stereo not drawn) [Compound 15, 2-(4-(4-(6-(5-Hydroxy-1,4,5,6-tetrahydropyrimidin-2-yl)-1H-indol-2-yl)phenoxy)phenyl)-1,4,5,6-tetrahydropyrimidin-5-ol] |  |  | selectivity for BoNT/A LC versus anthrax LF (BoNT/A LC [1]): over ten-fold
CN(C)CC/N=C(\N)c1ccc(Oc2ccc(-c3cc4ccc(/C(N)=N/CCN(C)C)cc4[nH]3)cc2)cc1 [Compound 12] |  |  | inhibitory activity against human MMP-1 (human MMP-1): no inhibitory activities; also recorded: does not inhibit; inhibitory activity against BoNT/B (BoNT/B LC): no inhibitory activities; also recorded: does not inhibit; dependence of inhibitory activity on Zn concentration (BoNT/A LC [1]): independent of the Zn concentration; fold more potent than the lead structure (compound 5) against BoNT/A LC (BoNT/A LC [1]): 4.4 fold; inhibitory activity against MMP-9 (MMP-9): no inhibitory activities; also recorded: does not inhibit; cellular activity in a chick neuronal assay (chick neuronal assay): showed cellular activity
N#Cc1ccc(Oc2ccc(-c3cc4ccc(C(=N)N)cc4[nH]3)cc2)cc1 [Compound 11, 2-(4-(4-Cyanophenoxy)phenyl)-1H-indole-6-carboximidamide hydrochloride salt] |  |  | inhibitory activity against BoNT/A LC (in words) (BoNT/A LC [1]): no activity
Fc1ccc(-c2cc3ccc(C4=NCCN4)cc3[nH]2)cc1 [Compound 40c, 6-(4,5-Dihydro-1H-imidazol-2-yl)-2-(4-fluorophenyl)-1H-indole] | < 4.00 | 4.40 | 
N=C(N)c1ccc2cc(-c3ccc(F)cc3)[nH]c2c1 [Compound 40b, 2-(4-Fluorophenyl)-1H-indole-6-carboximidamide] | < 4.00 | 4.32 | 
N#Cc1ccc2cc(-c3ccc(F)cc3)[nH]c2c1 [Compound 39, 2-(4-Fluorophenyl)-1H-indole-6-carbonitrile] | < 4.00 | < 4.00 | 
NCCNc1ccc(-c2cc3ccc(C4=NCCN4)cc3s2)nc1 [Compound 50, N^1–(6-(6-(4,5-Dihydro-1H-imidazol-2-yl)benzo[b]thiophen-2-yl)pyridine-3-yl)ethane-1,2-diamine] |  | < 4.00 | 
COc1ccc(-c2cc3ccc(C(N)=O)cc3[nH]2)cc1 [Compound 43a, 2-(4-Methoxyphenyl)-1H-indole-6-carboxamide] | < 4.00 | < 4.00 | 
Clc1ccc(Oc2ccc(-c3cc4ccc(C5=NCCN5)cc4[nH]3)cc2)c(Cl)c1 [Compound 29, 2-(4-(2,4-Dichlorophenoxy)phenyl)-6-(4,5-dihydro-1H-imidazol-2-yl)-1H-indole] |  |  | inhibitory activity against BoNT/A LC (in words) (BoNT/A LC [1]): maintain inhibitory activity
c1cc(-c2cc3ccc(C4=NCCN4)cc3[nH]2)ccc1C1=NCCN1 [Compound 44a, 6-(4,5-Dihydro-1H-imidazol-2-yl)-2-(4-(4,5-dihydro-1H-imidazol-2-yl)phenyl)-1H-indole] |  |  | inhibitory activity against human MMP-1 (human MMP-1): no inhibitory activities; inhibitory activity against BoNT/B (BoNT/B LC): no inhibitory activities; inhibitory activity against MMP-9 (MMP-9): no inhibitory activities
NC(=O)c1ccc2cc(-c3ccc(F)cn3)sc2c1 [Compound 49, 2-(5-Fluoro-2-pyridyl)-6-benzo[b]thiophenecarboxamide] | < 4.00 | < 4.00 | 
COc1ccc(-c2cc3ccc(C4=NCCN4)cc3[nH]2)cc1 [Compound 43c, 2-(4-Methoxyphenyl)-6-(4,5-dihydro-1H-imidazol-2-yl)-1H-indole] | 4.35 | 4.21 | 
